# Reference: paper PMC6511942, “Exploitation of Antibiotic Resistance as a Novel Drug Target: Development of a β-Lactamase-Activated Antibacterial Prodrug” (Journal of Medicinal Chemistry, 2019)
# Values joined by “and” are separate entries in the source; they are usually repeats but may differ in a detail not shown here. Identical values can stand only once. Like-named read-outs stand apart in the source and are kept apart here.
# Key:
# [1] = target: T1, recombinant DNA gyrase (Escherichia coli, UniProt P0AES4+P0AES6); test: Recombinant DNA gyrase supercoiling assay ± CTX-M-15; type: biochemical, E. coli
# T1 construct: purchased Inspiralis
# T1 sequence (P0AES4 whole entry, one chain of several): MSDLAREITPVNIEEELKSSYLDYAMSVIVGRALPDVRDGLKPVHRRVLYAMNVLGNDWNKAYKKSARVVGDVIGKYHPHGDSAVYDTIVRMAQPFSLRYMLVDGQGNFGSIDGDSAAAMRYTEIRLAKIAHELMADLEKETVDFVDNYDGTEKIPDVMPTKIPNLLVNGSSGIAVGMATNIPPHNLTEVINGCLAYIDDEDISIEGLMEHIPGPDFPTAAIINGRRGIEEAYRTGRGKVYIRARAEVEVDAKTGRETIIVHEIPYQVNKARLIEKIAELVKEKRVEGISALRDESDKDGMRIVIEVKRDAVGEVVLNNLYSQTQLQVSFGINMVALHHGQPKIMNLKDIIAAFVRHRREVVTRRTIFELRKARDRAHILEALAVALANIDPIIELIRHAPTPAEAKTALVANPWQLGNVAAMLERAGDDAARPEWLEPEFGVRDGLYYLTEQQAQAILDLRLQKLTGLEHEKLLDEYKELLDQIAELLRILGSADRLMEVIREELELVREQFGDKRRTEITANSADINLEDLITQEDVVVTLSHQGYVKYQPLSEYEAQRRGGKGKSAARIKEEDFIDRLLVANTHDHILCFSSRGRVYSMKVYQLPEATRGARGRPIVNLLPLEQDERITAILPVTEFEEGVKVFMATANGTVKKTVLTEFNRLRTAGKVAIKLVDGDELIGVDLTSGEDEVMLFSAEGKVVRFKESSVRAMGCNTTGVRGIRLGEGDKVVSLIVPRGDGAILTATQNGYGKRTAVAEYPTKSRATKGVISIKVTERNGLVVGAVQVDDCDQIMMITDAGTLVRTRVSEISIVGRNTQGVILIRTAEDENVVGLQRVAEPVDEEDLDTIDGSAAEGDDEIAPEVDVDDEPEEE
# [2] = tested on: Ec13 (CTX-M-15, ciprofloxacin resistant); test: microbe, parasite or virus in culture; type: cell-based, E. coli
# [3] = tested on: CFT073 pKPC (KPC-3); test: microbe, parasite or virus in culture; type: cell-based, E. coli; settings: Escherichia coli, read-out: MIC value pKPC
# [4] = tested on: CFT073 + pSU18 (pEMP); test: microbe, parasite or virus in culture; type: cell-based, E. coli
# [5] = tested on: Ec19 (CTX-M-15, ciprofloxacin resistant); test: microbe, parasite or virus in culture; type: cell-based, E. coli
# [6] = tested on: CFT073 E. coli cells WT; test: MIC, E. coli CFT073 WT; type: cell-based; settings: Escherichia coli
# [7] = tested on: E. faecalis ATCC29212 and GW01; test: Antibacterial activity against E. faecalis strains without β-lactamase; type: cell-based; settings: two strains that did not express β-lactamase
# [8] = tested on: Ec11 (CTX-M-15, ciprofloxacin sensitive); test: microbe, parasite or virus in culture; type: cell-based, E. coli
# [9] = tested on: CFT073 + pSU18 + CTX-M-1 (pCTX); test: microbe, parasite or virus in culture; type: cell-based, E. coli
# [10] = tested on: E. coli CFT073 pEMP; test: Bactericidal activity (survival by CFU counts), CFT073 pEMP; type: cell-based; settings: 78 nM, CFU counts over time
# Protocol: Finally, the ability of prodrug 35 to kill bacteria rather than arrest growth was evaluated. […]
# determined as the lowest concentration of antibiotic that inhibited visible bacterial growth.
# OD595 measurements were recorded on a BioRad 1Mark Microplate Reader. Measurements were background corrected against the no-inoculum control and normalized to the no-drug […]
# Determination of bactericidal activity
# Stationary-phase bacteria were inoculated into 3 ml MHB containing no antibiotic, […]
# subsequently incubated at 37 °C with shaking (180 r.p.m.) and bacterial viability determined […]
# been shown previously to be bactericidal.
# Recombinant β-lactamase assay
# Each compound was incubated for 1 hour at room temperature in 100 mM NaPO4 (pH 7) ± 0.5 M NaOH. The wavelength at which the difference between un-hydrolysed and hydrolysed compound was the greatest was selected (typically 263 nm) and a compound concentration vs. absorbance standard curve was generated. Compounds, typically 250 μM in assay buffer (100 mM NaPO4 (pH 7)), were dispensed into a Corning 96-well UV transparent flat bottom plate. Recombinant Amp-C in assay buffer was added immediately before incubatio n in the microplate reader at 37 °C. UV absorbance was measured every 20 s for 1 h on a BMG LABTECH SPECTROstarNano. Kinetic parameters were determined by half -life analysis.
# NMR β-lactamase hydrolysis assay […]
# [11] = tested on: Ec17 (CTX-M-15, ciprofloxacin sensitive); test: microbe, parasite or virus in culture; type: cell-based, E. coli
# [12] = tested on: Ec16 (CTX-M-15, ciprofloxacin sensitive); type: cell-based, E. coli; settings: strain EC16, ciprofloxacin sensitive
# [13] = tested on: CFT073 pNDM (NDM-1); test: microbe, parasite or virus in culture; type: cell-based, E. coli; settings: Escherichia coli, read-out: MIC value pNDM
# [14] = tested on: E. coli CFT073 pCTX-M-1; test: Bactericidal activity (survival by CFU counts), CFT073 pCTX-M-1; type: cell-based; settings: 78 nM
# [15] = tested on: Ec12 (CTX-M-15, ciprofloxacin resistant); test: microbe, parasite or virus in culture; type: cell-based, E. coli
compound,measurement,setting,value
"CC(=O)N[C@@H]1C(=O)N2C(C(=O)O)=C(COC(=O)c3cn(C4CC4)c4cc(N5CCNCC5)c(F)cc4c3=O)CS[C@H]12 [compound 35, (6R,7R)-7-Acetamido-3-(((1-cyclopropyl-6-fluoro-4-oxo-7-(piperazin-1-yl)-1,4-dihydroquinoline-3-carbonyl)oxy)methyl)-8-oxo-5-thia-1-azabicyclo[4.2.0]oct-2-ene-2-carboxylic Acid]",inhibition of DNA gyrase,[1]; absence of CTX-M-15,not observed
same,reduction of DNA gyrase activity,"[1]; presence of CTX-M-15, 1 μM compound",> 50%
same,MIC,"[2]; Escherichia coli, read-out: MIC value Ec13",> 5 µM
same,arrest in bacterial growth (in words),"[2]; strain EC13, ciprofloxacin resistant",no arrest in bacterial growth
same,MIC,[3],0.04 µg/mL and 0.063 µM
same,decrease in activity (MIC) compared to ciprofloxacin 31,"[4]; CFT073 WT and pEMP, absence of β-lactamase",10 fold
same,MIC assay in the presence of human serum,"[4]; CFT073 pEMP, 10 % normal human serum",equivalent to those obtained in the absence of serum
same,MIC,"[4]; Escherichia coli, read-out: MIC value pEMP, CFT073 empty plasmid",0.312 µM
same,MIC,"[5]; Escherichia coli, read-out: MIC value Ec19",> 5 µM
same,arrest in bacterial growth (in words),"[5]; strain EC19, ciprofloxacin resistant",no arrest in bacterial growth
same,MIC,"[6]; read-out: MIC value WT, CFT073 WT",0.312 µM
same,MIC,"[6]; CFT073 WT, read-out: MIC value WT",0.18 µg/mL and 0.31 µM
same,activity against E. faecalis compared to ciprofloxacin,[7],reduced activity compared to ciprofloxacin
same,MIC,"[8]; Escherichia coli, read-out: MIC value Ec11",0.63 µM
same,antibacterial activity (in words),"[8]; strain EC11, ciprofloxacin sensitive",confirmed
same,MIC assay in the presence of human serum,"[9]; CFT073 pCTX-M-1, 10 % normal human serum",equivalent to those obtained in the absence of serum
same,MIC higher than ciprofloxacin 31,"[9]; CFT073 strains expressing CTX-M-1, NDM1 or KPC",2 fold
same,MIC,"[9]; Escherichia coli, read-out: MIC value pCTX, CFT073 pCTX",0.04 µg/mL and 0.063 µM
same,growth of CFT073 expressing empty plasmid,[10],growth comparable to no treatment controls
same,MIC,"[11]; Escherichia coli, read-out: MIC value Ec17",2.5 µM
same,antibacterial activity (in words),"[11]; strain EC17, ciprofloxacin sensitive",confirmed
same,antibacterial activity (in words),[12],confirmed
same,MIC,[13],0.04 µg/mL and 0.063 µM
same,killing activity in E. coli expressing CTX-M-1,[14]; CFU counts over time,almost identical to free ciprofloxacin
same,greater killing of E. coli expressing CTX-M-1 compared with bacteria not expressing the enzyme,"[14]; 6 h incubation, CFU counts",> 100 fold
same,MIC,"[15]; Escherichia coli, read-out: MIC value Ec12",> 5 µM
same,arrest in bacterial growth (in words),"[15]; strain EC12, ciprofloxacin resistant",no arrest in bacterial growth
